Reference: patent publication US8158609B1, “Use of cyclodextrins as an active ingredient for treating dry AMD and solubilizing drusen” (Novartis AG, priority 2006, dated 2012)
Entries after “also recorded” stand apart in the source; their conditions may differ.

How the values were obtained:
[1] = system: mouse brown fat tissue; test: lipid histochemistry of fresh fat tissue, Oil Red O staining (positive control tissue); details: for dissolving of mouse fat tissue: 37° C., 24 hrs, compared with untreated fat tissue
Procedure: (§1) Unfixed, donor eye with AMD drusen was immersed in 30% sucrose in PBS buffer at pH 7.4 for 24 hours at 4° C. for cryoprotection, then embedded in OCT. For cryostat sections, the eye was serially sectioned at 8 μm thickness and stored at −70° C. Drusen were identified under the microscope. Unfixed fresh frozen mouse brown fat tissue was sectioned at 10 μm thickness as the positive control.
Hydroxypropyl β-cyclodextrin selected compound was titered to the best concentration by mouse fat tissue at 37° C. for 24 hrs (Table.2).
(§2) Unfixed frozen human eye drusens were considered closest to the in vivo state of drusen. Mouse brown fat was used for positive control.

[2] = system: lipid component of drusen; test: lipid histochemistry of drusen in eyes with AMD, Oil Red O staining; parameters: species or system human; details: 40 ml of 25% solution, 37° C., 24 hrs
Procedure: as §1
(§3) A viable in vitro assay to evaluate compounds with a potential to remove drusen in the eye was explored. Sections with drusen were treated with cyclodextrin for 30 min, 1 hr, 2 hrs, 4 hrs, 15 hrs at room temperature. In a subsequent experiment, sections with drusen were immersed in 40 ml of 25% Hydroxypropyl β-cyclodextrin at 37° C. for 24 hrs.
as §2

[3] = system: drusen; test: in vitro drusen removal assay, frozen drusen sections treated with cyclodextrin, H&E staining; parameters: species or system human
Procedure: as §1, §3, §2

Substance	dissolving of mouse fat tissue ([1]; 30% solution)	ORO staining of lipid-containing drusen / dissolving the lipid component of drusen [2]	dissolving of fresh mouse fat tissue ([1]; 25% solution)	dissolving of mouse fat tissue ([1]; 25%-45% solution)	size of a drusen, H&E 40× (FIG. 1C) ([3]; 25% solution, 2 hours)	change / dissolving of drusen by H&E staining ([3]; 40 ml, 25% (different concentration), 37° C., 24 hrs)
Sulfonyletherbutyl β-cyclodextrin	partial fat tissues were dissolved	–	–	–	–	–
Hydroxypropyl β-cyclodextrin	–	stained negatively; also recorded: has efficacy in dissolving the lipid component of drusen	has efficacy in dissolving fresh mouse fat tissue	has effect on dissolving the partial fat tissue; also recorded: partial fat tissues were dissolved	reduced size	no change; also recorded: could not completely dissolve drusen
